Measured values: patent US11541065B2, “Compositions and methods for treating brain injury” (UNM RAINFOREST INNOVATIONS, priority 2018, dated 2023)

Key:
ERK MAPK [1] = experiment: ERK MAPK phosphorylation during oxygen-glucose deprivation (OGD) in rat cortical neuron cultures; assay type: cell-based; details: rat cortical neurons
Description: Equal protein from total cell lysates obtained from rat and mice neuronal cultures were resolved in 7.5% SDS-PAGE, and subjected to immunoblotting procedure as described earlier (Podder and Paul, 2009, J Neurochem 110:1095-1106). Blots were analyzed with antibodies as described in each experiment. All primary antibodies (anti-pERK, anti-ERK) and secondary-horse radish peroxidase conjugated antibody concentrations were used according to recommendations provided by the manufacturer. Signals from immune complexes in the blots were developed using West Pico supersignal chemiluminescence reagents and then captured on X-ray films. Densitometric analysis of the images was performed using the Image J software.
At specified time periods (one hour, two hours, and three hours) during OGD alone or OGD in the presence of L-Hcy (50 μM), cells were removed from the chamber and lysed for immunoblot analysis. Some cultures were treated with L-Hcy (three hours) during the OGD insult in the presence or absence of NVP-AAM077 (30 nM; 3 h). […] Cells were then subjected to staining with Hoechst 33342 dye for 15 minutes, washed extensively with PBS, and analyzed using fluorescent microscopy to assess nuclear damage. To quantitatively assess the percentage of pyknotic nuclei, a total of 1000 cells were counted for each set of experiments (Poddar et al., 2010, J Neurochem 115, 1350-1362).

ERK MAPK [2] = experiment: ERK MAPK phosphorylation in ipsilateral cortex after MCAO (immunoblot); assay type: in vivo, Wistar rats; details: HHcy rats, MCAO 60 min, three hours of reperfusion, vs vehicle treated rats
Description: FIG. 10. ERK MAPK phosphorylation. (A) Control and hyperhomocysteinemic (HHcy) rats were subjected to MCAO for 60 min followed by reperfusion (sham, 0, 3, 6, 12 h). Cortical tissue lysates from the ipsilateral hemisphere were analyzed by immunoblotting, using anti-pERK and anti-ERK antibodies. (B) Control, HHcy and HHcy rats treated with NVP-AAM077 (HHcy+NVP) were subjected to MCAO for 60 min followed by reperfusion for 3 h. Cortical tissue lysates from the ipsilateral hemisphere were analyzed by immunoblotting, using anti-pERK and anti-ERK antibodies. The extent of ERK MAPK phosphorylation was quantified using computer-assisted densitometry and Image J analysis. Values are mean±SEM (n=5). (A) *p<0.001 from corresponding control. (B) *p<0.001 from HHcy.
Next, whether a mild ischemic insult under hyperhomocysteinemic condition could lead to prolonged increase in ERK MAPK phosphorylation was evaluated using a middle cerebral artery occlusion (MCAO) model. Normal and hyperhomocysteinemic Wistar rats were subjected to MCAO for 60 minutes followed by reperfusion for specified time periods (0, 3, 6, 12 h). […] NVP-AM077, however, blocks the prolonged phosphrylation of ERK MAPK in hyperhomocysteinemic rats at three hours of reperfusion. […]

| SMILES | ERK MAPK phosphorylation during OGD (ERK MAPK [1]; OGD in the presence of L-Hcy 50 μM, time course up to three hours) | ERK MAPK phosphorylation in ipsilateral cortex (ERK MAPK [2]) | effect on ERK MAPK activation by OGD plus L-homocysteine (ERK MAPK [1]; OGD and L-Hcy 50 μM three hours, NVP-AAM077 30 nM) |
| --- | --- | --- | --- |
| N[C@@H](CCS)C(=O)O [L-homocysteine] | causes sustained ERK MAPK phosphorylation | – | – |
| C[C@H](NC(c1cccc2[nH]c(=O)c(=O)[nH]c12)P(=O)(O)O)c1ccc(Br)cc1 (stereo partly drawn) [NVP-AAM077, ({[(1S)-1-(4-bromophenyl)ethyl]amino}-(2,3-dioxo-1,4-dihydroquinoxalin-5-yl)methyl)phosphonic acid] | – | significant reduction ERK MAPK phosphorylation | inhibits the activation of ERK MAPK |
